The subject of the experiment is L1210. The experiment in a line: Tumor cell selectivity determined as maximal percent increase in life span (ILSmax) at LD10 dosage level in L1210 cells. The format is functional, Mus musculus.
In turn, `COc1cc(NS(C)(=O)=O)ccc1Nc1c2ccc(Cl)cc2nc2c(C)cccc12` returned an ILSmax of 75%.
To `NCCCCc1ccc(Nc2c3ccccc3nc3cc([N+](=O)[O-])ccc23)cc1` belongs 25%.
For `Cc1ccc2c(Nc3ccc(NS(C)(=O)=O)cc3)c3ccccc3nc2c1` the value was 85%; for `CC(=O)Nc1ccc(Nc2c3ccccc3nc3ccccc23)cc1`, 60%.
To `NCCCCCc1ccc(NC(=O)Nc2ccc(N=c3c4ccccc4[nH]c4ccccc34)cc2)cc1` belongs 170%.
In turn, `COc1ccc(Nc2c3ccccc3nc3ccccc23)cc1` gave an ILSmax of 25%.
To `CCNc1ccc(Nc2c3ccccc3nc3ccccc23)cc1` belongs 52%; to `N=C(N)NCCS(=O)(=O)Nc1ccc(Nc2c3ccc(N)cc3nc3ccc(N)cc23)cc1`, 85%; to `CS(=O)(=O)Nc1ccc(Nc2c3ccccc3nc3c(C(N)=O)cccc23)cc1`, 50%.
For `Nc1ccc2c(Nc3ccc([N+](=O)[O-])cc3)c3ccccc3nc2c1` the value was 25%; for `COc1cc(NS(C)(=O)=O)ccc1Nc1c2ccccc2nc2cc(C)ccc12`, 168%; for `NC(=O)N/N=C/c1ccc(Nc2c3ccccc3nc3ccccc23)cc1`, 72%.
For `CCCCNC(=O)c1cccc2c(Nc3ccc(NS(C)(=O)=O)cc3OC)c3ccccc3nc12` the value was 95%; for `O=C(O)CCc1ccc(Nc2c3ccccc3nc3ccccc23)cc1`, 162%.
The molecule `CCCCCS(=O)(=O)Nc1ccc(Nc2c3ccccc3nc3c(C(N)=O)cccc23)c(OC)c1` displayed an ILSmax of 93%.
To `NCCCCCS(=O)(=O)Nc1ccc(Nc2c3ccccc3nc3cc([N+](=O)[O-])ccc23)cc1` belongs 80%.
For `CCCN(C)/N=N/c1ccc2c(Nc3ccc(NS(C)(=O)=O)cc3)c3ccccc3nc2c1` the value was 98%.
For the molecule `COc1ccc2nc3cc(N)ccc3c(Nc3ccc(NS(C)(=O)=O)cc3)c2c1`, the ILSmax was found to be 25%.
As for `COc1ccc2c(Nc3ccc(NS(C)(=O)=O)cc3)c3ccccc3nc2c1`, the ILSmax is 107%.
For `CCS(=O)(=O)Nc1ccc(Nc2c3ccccc3nc3c(C)cccc23)c(OC)c1` the value was 76%; for `O=C(O)CCCCCCCc1ccc(Nc2c3ccccc3nc3ccccc23)cc1`, 75%; for `CCCNc1ccc(Nc2c3ccccc3nc3ccccc23)cc1`, 25%.
For `N=C(N)NCCCCS(=O)(=O)Nc1ccc(Nc2c3ccccc3nc3cc([N+](=O)[O-])ccc23)cc1` the value was 110%.
In the case of `CS(=O)(=O)Nc1ccc(Nc2c3ccccc3nc3cccc([N+](=O)[O-])c23)cc1`, the ILSmax came to 25%.
In turn, `O=C(O)CCCCCCCCCc1ccc(Nc2c3ccccc3nc3ccccc23)cc1` displayed an ILSmax of 75%.
For `CC(C(N)=O)S(=O)(=O)Nc1ccc(Nc2c3ccccc3nc3ccccc23)cc1` (configuration not stated) the value was 25%; for `Cc1ccc2c(Nc3ccc(NS(C)(=O)=O)cc3)c3cccc(C)c3nc2c1`, 70%; for `COc1cc(NS(C)(=O)=O)ccc1Nc1c2cccc(C)c2nc2c(C)c(C)ccc12`, 120%.
For `Cc1cc(NS(C)(=O)=O)ccc1Nc1c2ccccc2nc2cc([N+](=O)[O-])ccc12` the value was 70%.
On to `CS(=O)(=O)Nc1ccc(Nc2c3ccccc3nc3cc(NC(=O)/C=C/c4ccccc4)ccc23)cc1`, for which the ILSmax came to 25%.
In the case of `CCN(CC)c1ccc(Nc2c3ccccc3nc3ccccc23)cc1`, the ILSmax was 25%.
To `O=C(O)c1ccc(S(=O)(=O)Nc2ccc(Nc3c4ccccc4nc4ccccc34)cc2)cc1` belongs 135%.
To `CC(=O)NCCS(=O)(=O)Nc1ccc(Nc2c3ccc(I)cc3nc3ccc(N)cc23)cc1` belongs 105%.
For `CS(=O)(=O)Nc1ccc(Nc2c3ccccc3nc3cc(NC(=O)c4ccccc4)ccc23)cc1` the value was 25%; for `CCCCCC(=O)Nc1ccc(Nc2c3ccccc3nc3ccccc23)cc1`, 110%.
In turn, `COc1cc(Nc2c3ccccc3nc3c([N+](=O)[O-])cccc23)ccc1NS(C)(=O)=O` gave an ILSmax of 25%.
To `CCS(=O)(=O)Nc1ccc(Nc2c3cccc(C)c3nc3c(C)cccc23)c(OC)c1` belongs 70%.
To `O=C(O)CCCCCCc1ccc(Nc2c3ccccc3nc3ccccc23)cc1` belongs 74%; to `O=C(O)c1ccc(/C=C/c2ccc(Nc3c4ccccc4nc4ccccc34)cc2)cc1`, 158%; to `Cc1cccc2c(Nc3ccc(NS(C)(=O)=O)cc3)c3ccc(N)cc3nc12`, 110%.
To `NS(=O)(=O)c1ccccc1Nc1c2ccccc2nc2ccccc12` belongs 25%.
As to `N=C(N)Nc1ccc(NC(=O)Nc2ccc(N=c3c4ccccc4[nH]c4cc([N+](=O)[O-])ccc34)cc2)cc1`, the ILSmax is listed as 200%.
For `NCCc1ccc(NC(=O)Nc2ccc(N=c3c4ccccc4[nH]c4ccccc34)cc2)cc1` the value was 170%.
For `CCOC(=O)N1CCN(C(=O)Nc2ccc(Nc3c4ccccc4nc4ccccc34)cc2)CC1` the value was 50%; for `COc1ccc2nc3cc(NC(C)=O)ccc3c(Nc3ccc(NS(C)(=O)=O)cc3)c2c1`, 25%; for `CCCCCCS(=O)(=O)Nc1ccc(Nc2c3ccccc3nc3c(C(N)=O)cccc23)c(OC)c1`, 87%.
`CCCCCCCCS(=O)(=O)Nc1ccc(Nc2c3ccccc3nc3ccccc23)c(OC)c1` came in with an ILSmax of 40%.
In turn, `NCc1ccc(Nc2c3ccccc3nc3cc([N+](=O)[O-])ccc23)cc1` showed an ILSmax of 25%.
In the case of `CC(=O)Nc1ccc2c(=Nc3ccc(CCC(=O)O)cc3)c3ccccc3[nH]c2c1`, the ILSmax worked out at 25%.
To `CCCCCCC(=O)N(c1ccc(Nc2c3ccccc3nc3cc(NC(C)=O)ccc23)cc1)S(C)(=O)=O` belongs 100%; to `O=C(Nc1ccc(Nc2c3ccccc3nc3ccccc23)cc1)OCC(O)CO` (configuration not stated), 70%.
To `COc1cc(NS(C)(=O)=O)ccc1Nc1c2cccc(C)c2nc2c(C)c([N+](=O)[O-])ccc12` belongs 56%; to `COc1cc(NS(C)(=O)=O)ccc1Nc1c2ccccc2nc2c(Br)cccc12`, 100%; to `O=C(O)/C=C\c1ccccc1Nc1c2ccccc2nc2ccccc12`, 25%.
To `CCCCCS(=O)(=O)Nc1ccc(Nc2c3ccccc3nc3cc([N+](=O)[O-])ccc23)c(OC)c1` belongs 72%; to `CC(=O)Nc1ccc2c(Nc3ccc(NS(=O)(=O)CCCNC(=N)N)cc3)c3ccc([N+](=O)[O-])cc3nc2c1`, 160%.
Consider `NCCC(=O)NCCS(=O)(=O)Nc1ccc(Nc2c3ccccc3nc3ccccc23)cc1`, for which the ILSmax is listed as 25%.
`COc1cc(NS(C)(=O)=O)ccc1Nc1c2ccccc2nc2cc(C#N)ccc12` yielded an ILSmax of 93%.
For `CCOc1ccccc1Nc1c2ccccc2nc2ccccc12` the value was 25%; for `CCCCCCS(=O)(=O)Nc1ccc(Nc2c3ccccc3nc3cc(NC(C)=O)ccc23)cc1`, 42%; for `CNc1ccc2c(Nc3ccc(NS(C)(=O)=O)cc3OC)c3ccccc3nc2c1`, 83%.
To `CCS(=O)(=O)Nc1ccc(Nc2c3ccccc3nc3cc(Cl)ccc23)c(OC)c1` belongs 95%; to `CS(=O)(=O)Nc1ccc(Nc2c3ccccc3nc3ccccc23)cn1`, 141%; to `COc1ccc2c(Nc3ccc(NS(C)(=O)=O)cc3)c3ccc(N)cc3nc2c1`, 105%.
For `CCCCCCS(=O)(=O)Nc1ccc(Nc2c3ccccc3nc3cc(S(C)(=O)=O)ccc23)c(OC)c1` the value was 25%; for `COc1ccc2c(Nc3ccc(NS(C)(=O)=O)cc3OC)c3ccc(Cl)cc3nc2c1`, 50%; for `CC(=O)Nc1ccc2c(Nc3ccc(NS(C)(=O)=O)cc3)c3ccc([N+](=O)[O-])cc3nc2c1`, 141%.
Consider `CCS(=O)(=O)Nc1ccc(Nc2c3ccccc3nc3c(C)cccc23)cc1`, for which the ILSmax is 65%.
To `COc1cc(Nc2c3ccccc3nc3ccccc23)ccc1N` belongs 25%; to `CCN(CC)/N=N/c1ccc2c(Nc3ccc(NS(C)(=O)=O)cc3)c3ccccc3nc2c1`, 95%.
To `COC(=O)N(c1ccc(Nc2c3ccccc3nc3cc(NC(C)=O)ccc23)cc1)S(C)(=O)=O` belongs 125%.
For `NCCCCCCS(=O)(=O)Nc1ccc(Nc2c3ccccc3nc3ccccc23)cc1` the value was 25%.
In the case of `O=S(=O)(Cc1ccc(Nc2c3ccccc3nc3ccccc23)cc1)Nc1ccccn1`, the ILSmax is given as 98%.
To `CCOC(=O)NNc1ccc(Nc2c3ccccc3nc3ccccc23)cc1` belongs 75%; to `CNc1ccc2c(Nc3ccc(NS(C)(=O)=O)cc3)c3cccc(C)c3nc2c1C`, 70%; to `Nc1ccc(CCS(=O)(=O)Nc2ccc(Nc3c4ccccc4nc4ccccc34)cc2)cc1`, 25%.
To `Cc1cc(C(=O)O)ccc1Nc1c2ccccc2nc2ccccc12` belongs 25%; to `CCCCC(=O)N(c1ccc(Nc2c3ccccc3nc3c(C)cccc23)c(OC)c1)S(C)(=O)=O`, 50%.
To `CC(=O)N(c1ccc(Nc2c3ccc([N+](=O)[O-])cc3nc3c(C)cccc23)cc1)S(C)(=O)=O` belongs 150%; to `CCCNC(=O)c1ccc(Nc2c3ccccc3nc3ccccc23)cc1`, 25%; to `O=S(=O)(Nc1ccc(Nc2c3ccccc3nc3ccccc23)cc1)c1ccccc1`, 75%.
Consider `CCCCS(=O)(=O)Nc1ccc(Nc2c3ccccc3nc3cc([N+](=O)[O-])ccc23)cc1`, for which the ILSmax amounted to 110%.
For `COc1cccc2c(Nc3ccc(NS(C)(=O)=O)cc3)c3ccc(N)cc3nc12` the value was 100%; for `CCCC(=O)N(c1ccc(Nc2c3ccc([N+](=O)[O-])cc3nc3c(C)cccc23)cc1)S(C)(=O)=O`, 85%; for `CS(=O)(=O)Nc1ccc(Nc2c3ccccc3nc3cc(N)ccc23)cc1`, 134%.
To `Nc1ccc2c(=Nc3ccc(S(N)(=O)=O)cc3)c3ccc(N)cc3[nH]c2c1` belongs 60%; to `C(=C/c1ccc(Nc2c3ccccc3nc3ccccc23)cc1)/c1ccccc1`, 25%.

For the origin of these results see ChEMBL document CHEMBL1122107, “Structure-antitumor activity relationships of 9-anilinoacridines using pattern recognition” (1982).
